± gives the expanded uncertainty stated by the source.
Test: molar heat capacity at constant pressure; xn = mol fraction of the nth substance listed
Conditions: 101 kPa, Liquid

CC(O)CN (stereo not given) [1-amino-2-propanol] + O
molar heat capacity at constant pressure [J/K/mol]
Conditions | x1 = 0.1 | x1 = 0.2007 | x1 = 0.2996 | x1 = 0.4001 | x1 = 0.4983 | x1 = 0.6013 | x1 = 0.6999 | x1 = 0.7996 | x1 = 0.8959 | x1 = 1
303.15 K | 95 ± 1 | 110 ± 1 | 121 ± 1 | 133 ± 1 | 145 ± 1 | 158 ± 1 | 170 ± 2 | 183 ± 2 | 196 ± 2 | 209 ± 2
308.15 K | 97 ± 1 | 113 ± 1 | 124 ± 1 | 137 ± 1 | 149 ± 1 | 162 ± 1 | 174 ± 2 | 187 ± 2 | 200 ± 2 | 213 ± 2
313.15 K | 98 ± 1 | 114 ± 1 | 126 ± 1 | 139 ± 1 | 151 ± 1 | 164 ± 1 | 176 ± 2 | 188 ± 2 | 201 ± 2 | 214 ± 2
318.15 K | 99 ± 1 | 116 ± 1 | 128 ± 1 | 141 ± 1 | 154 ± 1 | 166 ± 1 | 177 ± 2 | 190 ± 2 | 202 ± 2 | 215 ± 2
323.15 K | 100 ± 1 | 117 ± 1 | 130 ± 1 | 144 ± 1 | 156 ± 1 | 168 ± 1 | 180 ± 2 | 192 ± 2 | 204 ± 2 | 217 ± 2
328.15 K | 102 ± 1 | 119 ± 1 | 133 ± 1 | 147 ± 1 | 159 ± 1 | 171 ± 2 | 182 ± 2 | 194 ± 2 | 206 ± 2 | 218 ± 2
333.15 K | 104 ± 1 | 121 ± 1 | 136 ± 1 | 150 ± 1 | 162 ± 1 | 174 ± 2 | 185 ± 2 | 197 ± 2 | 209 ± 2 | 221 ± 2
338.15 K | 106 ± 1 | 125 ± 1 | 140 ± 1 | 154 ± 1 | 166 ± 1 | 178 ± 2 | 188 ± 2 | 200 ± 2 | 211 ± 2 | 223 ± 2
343.15 K | 109 ± 1 | 128 ± 1 | 144 ± 1 | 158 ± 1 | 170 ± 2 | 181 ± 2 | 192 ± 2 | 203 ± 2 | 214 ± 2 | 225 ± 2
348.15 K | 112 ± 1 | 133 ± 1 | 149 ± 1 | 163 ± 1 | 175 ± 2 | 185 ± 2 | 195 ± 2 | 206 ± 2 | 216 ± 2 | 228 ± 2
353.15 K | 117 ± 1 | 138 ± 1 | 155 ± 1 | 169 ± 1 | 180 ± 2 | 190 ± 2 | 199 ± 2 | 209 ± 2 | 219 ± 2 | 230 ± 2

CN(C)CCO [2-(N,N-dimethylamino)ethanol] + O
molar heat capacity at constant pressure [J/K/mol]
Conditions | x1 = 0.0997 | x1 = 0.1962 | x1 = 0.3003 | x1 = 0.3984 | x1 = 0.4983 | x1 = 0.6008 | x1 = 0.698 | x1 = 0.7981 | x1 = 0.8938 | x1 = 1
303.15 K | 103 ± 1 | 118 ± 1 | 132 ± 1 | 144 ± 1 | 156 ± 1 | 168 ± 1 | 179 ± 2 | 191 ± 2 | 202 ± 2 | 213 ± 2
308.15 K | 104 ± 1 | 119 ± 1 | 134 ± 1 | 146 ± 1 | 158 ± 1 | 170 ± 2 | 181 ± 2 | 193 ± 2 | 205 ± 2 | 215 ± 2
313.15 K | 105 ± 1 | 121 ± 1 | 136 ± 1 | 149 ± 1 | 161 ± 1 | 173 ± 2 | 185 ± 2 | 196 ± 2 | 208 ± 2 | 217 ± 2
318.15 K | 105 ± 1 | 123 ± 1 | 139 ± 1 | 152 ± 1 | 164 ± 1 | 177 ± 2 | 188 ± 2 | 199 ± 2 | 210 ± 2 | 219 ± 2
323.15 K | 107 ± 1 | 125 ± 1 | 141 ± 1 | 155 ± 1 | 168 ± 1 | 180 ± 2 | 191 ± 2 | 203 ± 2 | 213 ± 2 | 221 ± 2
328.15 K | 108 ± 1 | 127 ± 1 | 144 ± 1 | 158 ± 1 | 171 ± 2 | 184 ± 2 | 195 ± 2 | 206 ± 2 | 215 ± 2 | 222 ± 2
333.15 K | 109 ± 1 | 129 ± 1 | 147 ± 1 | 161 ± 1 | 175 ± 2 | 187 ± 2 | 199 ± 2 | 209 ± 2 | 217 ± 2 | 223 ± 2
338.15 K | 112 ± 1 | 132 ± 1 | 150 ± 1 | 165 ± 1 | 179 ± 2 | 192 ± 2 | 203 ± 2 | 213 ± 2 | 220 ± 2 | 223 ± 2
343.15 K | 114 ± 1 | 136 ± 1 | 155 ± 1 | 170 ± 2 | 184 ± 2 | 196 ± 2 | 208 ± 2 | 218 ± 2 | 223 ± 2 | 223 ± 2
348.15 K | 118 ± 1 | 140 ± 1 | 160 ± 1 | 176 ± 2 | 190 ± 2 | 203 ± 2 | 214 ± 2 | 223 ± 2 | 225 ± 2 | 224 ± 2
353.15 K | 123 ± 1 | 146 ± 1 | 166 ± 1 | 184 ± 2 | 198 ± 2 | 210 ± 2 | 221 ± 2 | 229 ± 2 | 228 ± 2 | 226 ± 2
